Experimental data reported in ChEMBL document CHEMBL3112477, “Rat intestinal sucrase inhibition of constituents from the roots of Rosa rugosa Thunb” (Bioorg Med Chem Lett, 2014).
pIC50: −log10 of the molar value.

Key:
[1] = biological target: Sucrase-isomaltase, intestinal (Rattus norvegicus, UniProt P23739); assay: Inhibition of rat intestinal sucrase using p-nitrophenyl-alpha-d-glucopyranoside as substrate incubated for 10 mins prior to substrate addition measured after 5 mins by spectrophotometry
Sequence of Sucrase-isomaltase, intestinal (P23739 1-1013 limits assumed): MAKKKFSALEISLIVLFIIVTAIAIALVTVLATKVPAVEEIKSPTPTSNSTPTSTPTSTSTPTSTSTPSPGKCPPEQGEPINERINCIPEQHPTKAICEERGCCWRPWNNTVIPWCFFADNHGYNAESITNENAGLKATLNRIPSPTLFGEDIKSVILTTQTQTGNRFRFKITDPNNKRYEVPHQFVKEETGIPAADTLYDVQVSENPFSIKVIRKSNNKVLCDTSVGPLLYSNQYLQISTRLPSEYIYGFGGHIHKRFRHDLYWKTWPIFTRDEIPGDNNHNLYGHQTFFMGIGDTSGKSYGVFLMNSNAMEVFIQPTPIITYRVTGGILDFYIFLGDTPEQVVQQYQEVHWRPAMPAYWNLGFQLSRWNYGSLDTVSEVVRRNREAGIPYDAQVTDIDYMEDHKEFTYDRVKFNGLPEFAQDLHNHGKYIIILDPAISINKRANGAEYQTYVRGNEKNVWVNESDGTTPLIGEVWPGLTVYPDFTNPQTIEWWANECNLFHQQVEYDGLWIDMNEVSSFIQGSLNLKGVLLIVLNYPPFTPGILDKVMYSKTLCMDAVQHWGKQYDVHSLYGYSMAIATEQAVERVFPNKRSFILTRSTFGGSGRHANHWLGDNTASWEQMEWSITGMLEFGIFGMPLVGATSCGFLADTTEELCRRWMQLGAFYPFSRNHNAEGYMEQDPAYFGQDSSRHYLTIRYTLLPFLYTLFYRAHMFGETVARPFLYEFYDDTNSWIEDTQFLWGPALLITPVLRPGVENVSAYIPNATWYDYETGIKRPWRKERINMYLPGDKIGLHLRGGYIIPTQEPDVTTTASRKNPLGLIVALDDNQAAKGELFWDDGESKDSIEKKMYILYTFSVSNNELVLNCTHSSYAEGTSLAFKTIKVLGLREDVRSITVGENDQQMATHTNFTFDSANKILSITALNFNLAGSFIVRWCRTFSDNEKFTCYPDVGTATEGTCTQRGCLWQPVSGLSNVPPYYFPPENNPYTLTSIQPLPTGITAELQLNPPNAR
Sequence of Sucrase-isomaltase, intestinal (P23739 1014-1841 limits assumed): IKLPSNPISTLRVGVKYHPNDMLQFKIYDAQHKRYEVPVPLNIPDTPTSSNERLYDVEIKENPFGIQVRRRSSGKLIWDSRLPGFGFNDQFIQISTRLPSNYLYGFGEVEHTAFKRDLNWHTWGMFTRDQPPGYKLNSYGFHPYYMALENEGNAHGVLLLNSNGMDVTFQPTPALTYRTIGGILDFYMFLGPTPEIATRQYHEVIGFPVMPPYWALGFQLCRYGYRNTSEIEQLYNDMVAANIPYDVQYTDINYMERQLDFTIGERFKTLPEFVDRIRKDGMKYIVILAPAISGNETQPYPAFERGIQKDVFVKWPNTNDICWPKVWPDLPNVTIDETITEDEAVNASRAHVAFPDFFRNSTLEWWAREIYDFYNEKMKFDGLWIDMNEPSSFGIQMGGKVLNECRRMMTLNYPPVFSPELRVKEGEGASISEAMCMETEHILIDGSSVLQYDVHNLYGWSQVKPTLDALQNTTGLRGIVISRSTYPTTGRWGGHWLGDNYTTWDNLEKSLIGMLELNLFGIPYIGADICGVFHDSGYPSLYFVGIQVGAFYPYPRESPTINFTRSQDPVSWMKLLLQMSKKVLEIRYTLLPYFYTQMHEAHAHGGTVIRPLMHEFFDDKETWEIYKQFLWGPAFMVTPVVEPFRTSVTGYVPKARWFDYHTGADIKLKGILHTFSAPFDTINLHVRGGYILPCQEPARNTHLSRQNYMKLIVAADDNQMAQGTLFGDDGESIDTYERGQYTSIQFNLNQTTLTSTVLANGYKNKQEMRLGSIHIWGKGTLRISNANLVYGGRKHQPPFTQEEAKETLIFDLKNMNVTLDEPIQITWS

[2] = biological target: Sucrase-isomaltase, intestinal (Rattus norvegicus) (UniProt P23739); assay: Inhibition of rat intestinal sucrase using p-nitrophenyl-alpha-d-glucopyranoside as substrate at 1 mM incubated for 10 mins prior to substrate addition measured after 5 mins by spectrophotometry
Sequence of Sucrase-isomaltase, intestinal (Rattus norvegicus) (P23739 1-1013 limits assumed): as the sequence (P23739 1-1013 limits assumed) above
Sequence of Sucrase-isomaltase, intestinal (Rattus norvegicus) (P23739 1014-1841 limits assumed): as the sequence (P23739 1014-1841 limits assumed) above

CC1=CC(=O)CC(C)(C)[C@H]1/C=C/[C@@H](C)O[C@@H]1O[C@H](CO)[C@@H](O)[C@H](O)[C@H]1O
pIC50 [1]: < 3.00
inhibition [2]: 12.5%

C[C@H]1[C@H](C)CC[C@]2(C(=O)O)CC[C@]3(C)C(=CC[C@@H]4[C@@]5(C)CC[C@H](O)C(C)(C)[C@@H]5CC[C@]43C)[C@H]12 [URSOLIC ACID]
pIC50 [1]: < 3.00
inhibition [2]: 32%

Oc1cc(O)c2c(c1)O[C@H](c1ccc(O)c(O)c1)[C@@H](O)[C@@H]2c1c(O)cc(O)c2c1O[C@H](c1ccc(O)c(O)c1)[C@@H](O)C2
pIC50 [1]: 3.37
inhibition [2]: 76%

C[C@@H]1CC[C@]2(C(=O)O)CC[C@]3(C)C(=CC[C@@H]4[C@@]5(C)C=C(O)C(=O)C(C)(C)[C@@H]5CC[C@]43C)[C@@H]2[C@]1(C)O
inhibition [2]: < 10%

CC1(C)C=C(C=O)[C@]2(C)[C@H]3CC=C4[C@@H]5[C@H](O)C(C)(C)CC[C@]5(C(=O)O)CC[C@@]4(C)[C@]3(C)CC[C@@H]12
pIC50 [1]: < 3.00
inhibition [2]: 32.4%

C=C(C)[C@@H]1CC[C@]2(C(=O)O)CC[C@]3(C)[C@H](CC[C@@H]4[C@@]5(C)CC[C@H](O)C(C)(C)[C@@H]5CC[C@]43C)[C@@H]12
inhibition [2]: < 10%

Oc1ccc([C@@H]2Oc3cc(O)ccc3[C@H](c3c(O)cc(O)c4c3O[C@H](c3ccc(O)c(O)c3)[C@H](O)C4)[C@H]2O)cc1
pIC50 [1]: 3.60
inhibition [2]: 84.7%

C[C@H]1O[C@H](O[C@H]2[C@H](O)[C@@H](O)[C@@H](O[C@H]3[C@H](O)[C@@H](O)C(O)O[C@@H]3CO)O[C@@H]2CO)[C@H](O)[C@@H](O)[C@@H]1N[C@H]1C=C(CO)[C@@H](O)[C@H](O)[C@H]1O (some centres not stated)
inhibition [2]: 51%

Oc1cc(O)c2c(c1)O[C@H](c1ccc(O)c(O)c1)[C@@H](O)C2 [CIANIDANOL]
pIC50 [1]: 3.51
inhibition [2]: 80%

Oc1ccc2c(c1)O[C@H](c1ccc(O)c(O)c1)[C@@H](O)[C@@H]2c1c(O)cc2c(c1O)C[C@H](O)[C@@H](c1ccc(O)c(O)c1)O2
pIC50 [1]: 3.28
inhibition [2]: 72.2%

CC1=CC(=O)CC(C)(C)/C1=C/CC(C)O[C@@H]1O[C@H](CO)[C@@H](O)[C@H](O)[C@H]1O (some centres not stated)
pIC50 [1]: < 3.00
inhibition [2]: 28.3%

CC1(C)[C@@H](O)CC[C@]2(C)[C@H]3CC[C@@H]4C=C[C@H](O)[C@@]4(C)[C@]3(C)CC[C@@H]12
pIC50 [1]: < 3.00
inhibition [2]: 40%

CC1=CC(=O)CC(C)(C)[C@H]1/C=C/[C@H](C)O[C@@H]1O[C@H](CO)[C@@H](O)[C@H](O)[C@H]1O
pIC50 [1]: < 3.00
inhibition [2]: 14%

Oc1ccc([C@H]2Oc3cc(O)ccc3[C@H](c3c(O)cc(O)c4c3O[C@H](c3ccc(O)c(O)c3)[C@H](O)C4)[C@H]2O)cc1
pIC50 [1]: 3.32
inhibition [2]: 68.4%

C[C@@H]1CC[C@]2(C(=O)O)CC[C@]3(C)C(=CC[C@@H]4[C@@]5(C)CC(=O)[C@H](O)C(C)(C)[C@@H]5CC[C@]43C)[C@@H]2[C@]1(C)O
inhibition [2]: < 10%

Oc1cc(O)c2c(c1)O[C@H](c1ccc(O)c(O)c1)[C@H](O)C2 [(-)-EPICATECHIN]
pIC50 [1]: 3.19
inhibition [2]: 61.9%

CC1=CC(=O)CC(C)(C)/C1=C\CC(C)O[C@@H]1O[C@H](CO)[C@@H](O)[C@H](O)[C@H]1O (some centres not stated)
pIC50 [1]: < 3.00
inhibition [2]: 28.6%

Oc1cc(O)c2c(c1)O[C@@]1(c3ccc(O)c(O)c3)Oc3cc(O)c4c(c3[C@@H]2[C@H]1O)O[C@@H](c1ccc(O)c(O)c1)[C@H](O)[C@H]4c1c(O)cc(O)c2c1O[C@H](c1ccc(O)c(O)c1)[C@H](O)C2 [AESCULTITANNIN B]
pIC50 [1]: 3.40
inhibition [2]: 66.8%
